Results published in the NIST ThermoML archive (doi:10.1021/je201334p).
± gives the expanded uncertainty stated by the source.

Key:
[1] = xn = mol fraction of the nth substance listed; conditions: 308.15 K, 101 kPa, Liquid; for speed of sound: Sing-around technique in a fixed-path interferometer; for mass density: Vibrating tube method
[2] = refractive index (Na D-line) (dimensionless); xn = mol fraction of the nth substance listed; conditions: 101 kPa, Liquid, Standard Abbe refractometry

CCCC[n+]1cccc(C)c1.O=S(=O)([O-])C(F)(F)F [1-butyl-3-methylpyridinium trifluoromethanesulfonate] + O
[1]
Conditions | mass density [kg/m3] | speed of sound [m/s]
x2 = 0 | 1271.8 ± 0.59 | –
x2 = 0.0794 | 1269.98 ± 0.53 | –
x2 = 0.1517 | 1267.96 ± 0.48 | –
x2 = 0.2502 | 1264.58 ± 0.42 | –
x2 = 0.3515 | 1260.24 ± 0.36 | –
x2 = 0.4528 | 1254.58 ± 0.31 | –
x2 = 0.5628 | 1246.08 ± 0.27 | 1430.3 ± 1.1
x2 = 0.6561 | 1235.57 ± 0.23 | 1445.3 ± 1
x2 = 0.7494 | 1219.46 ± 0.21 | 1465.8 ± 1
x2 = 0.8383 | 1192.69 ± 0.19 | 1493.4 ± 1
x2 = 0.9201 | 1142.04 ± 0.16 | 1528.6 ± 1
x2 = 0.9603 | 1092.3 ± 0.16 | 1550.4 ± 1

refractive index, [2]
Conditions | 288.15 K | 298.15 K | 308.15 K
x2 = 0 | 1.46446 ± 0.00053 | 1.46155 ± 0.00053 | 1.45868 ± 0.00053
x2 = 0.0794 | 1.46358 ± 0.00052 | 1.46073 ± 0.00053 | 1.45784 ± 0.00053
x2 = 0.1517 | 1.46266 ± 0.00052 | 1.45982 ± 0.00052 | 1.45694 ± 0.00053
x2 = 0.2502 | 1.46111 ± 0.00051 | 1.45822 ± 0.00052 | 1.45535 ± 0.00052
x2 = 0.3515 | 1.4591 ± 0.0005 | 1.45623 ± 0.00051 | 1.45331 ± 0.00053
x2 = 0.4528 | 1.45651 ± 0.00049 | 1.45363 ± 0.00051 | 1.45069 ± 0.00053
x2 = 0.5628 | 1.45257 ± 0.00047 | 1.44968 ± 0.00051 | 1.44673 ± 0.00054
x2 = 0.6561 | 1.4477 ± 0.00045 | 1.44482 ± 0.0005 | 1.44183 ± 0.00056
x2 = 0.7494 | 1.44008 ± 0.00042 | 1.43724 ± 0.0005 | 1.43429 ± 0.00062
x2 = 0.8383 | 1.42747 ± 0.00043 | 1.42474 ± 0.00049 | 1.42192 ± 0.0008
x2 = 0.9201 | 1.40357 ± 0.00049 | 1.40118 ± 0.00047 | 1.39863 ± 0.00085
x2 = 0.9603 | 1.37998 ± 0.00069 | 1.37782 ± 0.00046 | 1.3757 ± 0.001
